Entries after “also recorded” stand apart in the source; their conditions may differ. Read-outs that look alike come from different tables or passages of the source.
Assays:
[1] = biological target: T1, acetylcholine esterase (AChE) (Mus musculus, UniProt P21836); test: In vitro assay for choline esterase inhibition (Ellman method), acetylthiocholine substrate, mouse brain homogenate; type: biochemical
T1 construct: brain homogenate and serum of mouse were used as choline esterase enzyme sources; from tissue; host or cells: mouse brain homogenate
T1 sequence (P21836 32-614): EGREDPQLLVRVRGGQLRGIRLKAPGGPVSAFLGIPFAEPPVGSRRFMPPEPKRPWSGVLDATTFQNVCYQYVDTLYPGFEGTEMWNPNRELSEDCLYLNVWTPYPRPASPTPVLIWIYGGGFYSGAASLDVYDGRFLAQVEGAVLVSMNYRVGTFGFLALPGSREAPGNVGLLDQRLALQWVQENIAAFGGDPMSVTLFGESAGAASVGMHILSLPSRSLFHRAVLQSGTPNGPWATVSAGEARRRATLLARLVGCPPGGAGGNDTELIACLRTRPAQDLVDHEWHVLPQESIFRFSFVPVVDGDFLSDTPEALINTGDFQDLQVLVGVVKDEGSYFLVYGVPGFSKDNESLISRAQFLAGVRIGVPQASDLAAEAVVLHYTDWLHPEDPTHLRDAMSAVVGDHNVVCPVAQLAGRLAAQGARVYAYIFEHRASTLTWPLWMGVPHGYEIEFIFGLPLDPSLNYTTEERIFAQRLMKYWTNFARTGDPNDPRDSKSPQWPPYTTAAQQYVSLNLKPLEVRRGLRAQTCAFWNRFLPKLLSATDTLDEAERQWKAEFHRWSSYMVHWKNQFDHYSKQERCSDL
Method in brief: (§1)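 Enzyme sources were mouse brain homogenate for AChE (acetylthiocholine substrate) and mouse serum for BuChE (butyrylthiocholine substrate). Compounds were diluted in DMSO and incubated with substrate and DTNB, and the thiocholine–DTNB product was read at 415 nm (Ellman method). Selectivity was taken as IC50(AChE)/IC50(BuChE).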

[2] = biological target: T2, butyrylcholine esterase (BuChE) (Mus musculus, UniProt Q03311); test: In vitro assay for choline esterase inhibition (Ellman method), butyrylthiocholine substrate, mouse serum; type: biochemical; settings: for Ratio AChE/BuChE: selectivity for BuChE inhibition: IC50 (AchE)/IC50 (BuChE)
T2 construct: brain homogenate and serum of mouse were used as choline esterase enzyme sources; from tissue; host or cells: mouse serum
T2 sequence (Q03311 30-603): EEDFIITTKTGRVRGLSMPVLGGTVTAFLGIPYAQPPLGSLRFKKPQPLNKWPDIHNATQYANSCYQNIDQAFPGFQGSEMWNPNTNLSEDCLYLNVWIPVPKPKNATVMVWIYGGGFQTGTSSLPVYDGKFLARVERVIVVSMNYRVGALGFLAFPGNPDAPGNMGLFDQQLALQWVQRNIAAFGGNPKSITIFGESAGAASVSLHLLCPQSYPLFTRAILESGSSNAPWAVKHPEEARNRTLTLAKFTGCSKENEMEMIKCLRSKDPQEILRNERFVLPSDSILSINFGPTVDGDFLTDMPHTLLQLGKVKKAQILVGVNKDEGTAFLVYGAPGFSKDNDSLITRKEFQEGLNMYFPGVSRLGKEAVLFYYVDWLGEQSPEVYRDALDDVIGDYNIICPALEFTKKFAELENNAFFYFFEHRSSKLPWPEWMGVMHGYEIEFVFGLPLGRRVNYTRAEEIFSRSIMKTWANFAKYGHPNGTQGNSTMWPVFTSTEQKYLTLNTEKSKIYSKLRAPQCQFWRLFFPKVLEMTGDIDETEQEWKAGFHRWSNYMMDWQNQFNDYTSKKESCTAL
Method in brief: as §1

With `CC(C)c1ccc(NC(=O)Oc2ccc3c(c2)CCN3Cc2cc(N(C)C)c3ccccc3c2)cc1` the melting point was 75 to 80 °C.

For `COc1cc(CN2CCc3cc(OC(=O)Nc4ccc(C(C)C)cc4)ccc32)ccc1N(C)C`, the melting point was 152 to 153 °C.

`O=C(Nc1ccc(-c2ccccc2)cc1)Oc1ccc2c(c1)CCN2Cc1ccccc1` showed a melting point of 175 to 178 °C.

In the case of `O=C(Nc1ccncc1)Oc1ccc2c(c1)CCN2Cc1ccccc1`, the melting point is reported as 132 to 136 °C.

With `COC(=O)c1ccc(CN2CCc3cc(OC(=O)Nc4ccc(C(C)C)cc4)ccc32)cc1` the melting point was 149 to 153 °C.

Work on `CNC(=O)Oc1ccc2c(c1)CCN2` yielded a melting point of 109 to 112 °C.

With `CC(C)c1ccc(NC(=O)Oc2ccc3c(c2)CCN3Cc2ccc3ccccc3c2)cc1` the melting point was 136 to 140 °C.

With `O=C(Nc1ccc(Oc2ccccc2)cc1)Oc1ccc2c(c1)CCN2Cc1ccccc1` the melting point was 155 to 160 °C.

Work on `COc1ccc(NC(=O)Oc2ccc3c(c2)CCN3)cc1OC` yielded a melting point of 140 to 144 °C.

`O=C(Nc1ccc2ccccc2c1)Oc1ccc2c(c1)CCN2Cc1ccccc1` showed a melting point of 161 to 167 °C.

`CCCN(CCC)C(=O)C1Cc2cc(OC(=O)Nc3ccc(C(C)C)cc3)ccc2N1Cc1ccccc1` (stereo not shown) showed a melting point of 62 to 66 °C.

Compound `CC(C)c1ccc(NC(=O)Oc2ccc3c(c2)CCN3Cc2ccc3cc[nH]c3c2)cc1` has a melting point of 194 to 196 °C.

Work on `CC(C)c1ccc(NC(=O)Oc2ccc3c(c2)CCN3Cc2ccc3ccccc3n2)cc1` yielded a melting point of 150 to 152 °C.

Compound `CC(C)c1ccc(NC(=O)Oc2ccc3c(c2)CCN3Cc2ccco2)cc1` has a melting point of 168 to 171 °C.

In the case of `O=C(Nc1ccc([N+](=O)[O-])cc1)Oc1ccc2c(c1)CCN2Cc1ccccc1`, the melting point is reported as 225 to 229 °C.

Compound `O=C(Nc1ccccc1)Oc1ccc2c(c1)CCN2Cc1ccccc1` has a melting point of 105 to 112 °C.

For `CC(C)c1ccc(NC(=O)Oc2ccc3c(c2)CCN3Cc2ccc(O)c(Cl)c2)cc1`, the melting point was 170 to 174 °C.

Compound `CC(C)c1ccc(NC(=O)Oc2ccc3c(c2)CCN3)cc1` has a melting point of 166 to 170 °C.

For `O=C(NCc1ccccc1)Oc1ccc2c(c1)CCN2` [Example 127, indolin-5-yl benzylcarbamate], the IC50 ([1]; mouse brain homogenate, acetylthiocholine, absorbance at 415 nm, read-out: AChE inhibitory activity IC50) was 750 nM, the IC50 ([2]; mouse serum, butyrylthiocholine, absorbance at 415 nm, read-out: BuChE inhibitory activity IC50) was 610 nM and the “Ratio AChE/BuChE” value [2] was 1.2.

`CC(C)c1ccc(NC(=O)Oc2ccc3c(c2)CCN3Cc2cccc3ncccc23)cc1` showed a melting point of 195 to 199 °C.

`O=C(Nc1ccc(C2CCCCC2)cc1)Oc1ccc2c(c1)CCN2Cc1ccccc1` gave a melting point of 171 to 174 °C.

For `O=C(NCC1CCCCC1)Oc1ccc2c(c1)CCN2`, the melting point was 129 to 133 °C.

In the case of `CN(CC1CCOCC1)C(=O)Oc1ccc2c(c1)C(C)(C)CN2Cc1ccncc1` [Example 220, N-methyl-O-[1-(4-pyridylmethyl)-3,3-dimethylindolin-5-yl]-N-(4-tetrahydropyranylmethyl)carbamate], the IC50 [1] is reported as 21000 nM, the IC50 [2] is reported as 1.9 nM and the “Ratio AChE/BuChE” value [2] is reported as 11000. The “selectivity to butyrylcholinesterase (BuChE versus AChE inhibitory activity), in words” value ([2]; summary of Tables 1-3) was “much higher”.

`COc1ccc(NC(=O)Oc2ccc3c(c2)CCN3)cc1` showed a melting point of 220 to 224 °C.

For `CN(CC1CCOCC1)C(=O)Oc1ccc2c(c1)C(C)(C)CN2Cc1ccccc1` [Example 217, O-(1-benzyl-3,3-dimethylindolin-5-yl)-N-methyl-N-(4-tetrahydropyranylmethyl)carbamate], the IC50 [1] was 93000 nM, the IC50 [2] was 0.36 nM and the “Ratio AChE/BuChE” value [2] was 260000. For the same compound, the “butyrylcholinesterase inhibitory activity, in words” value ([2]; summary of Tables 1-3) was “highest butyrylcholinesterase inhibitory activity” and the “selectivity to butyrylcholinesterase (BuChE versus AChE inhibitory activity), in words” value ([2]; summary of Tables 1-3) was “much higher; also recorded: highest selectivity to butyrylcholinesterase”.
